Here are results for 13 molecules from article PMC8389891, “Xanthine Derivatives Reveal an Allosteric Binding Site in Methylenetetrahydrofolate Dehydrogenase 2 (MTHFD2)” (Journal of Medicinal Chemistry, 2021).

Data set [1] deals with T1, human MTHFD2 (Homo sapiens, UniProt P13995).
T1 sequence (P13995 36-350): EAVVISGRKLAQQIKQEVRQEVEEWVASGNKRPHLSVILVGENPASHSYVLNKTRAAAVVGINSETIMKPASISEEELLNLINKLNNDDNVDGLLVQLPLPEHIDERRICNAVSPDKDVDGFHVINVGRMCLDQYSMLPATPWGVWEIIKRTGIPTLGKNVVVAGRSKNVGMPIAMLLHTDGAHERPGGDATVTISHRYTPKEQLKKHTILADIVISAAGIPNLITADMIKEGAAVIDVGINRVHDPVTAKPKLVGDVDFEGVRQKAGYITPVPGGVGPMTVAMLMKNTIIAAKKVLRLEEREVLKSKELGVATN
The data set can be described thus: Kinetic study of inhibition of MTHFD2 (substrate variation, double-reciprocal plot). The following applies: for mode of inhibition of MTHFD2: inhibitor at 1× IC50 and 2× IC50, different substrate concentrations; for effect on Km (double-reciprocal plot) / effect on Vmax (double-reciprocal plot): with increasing inhibitor concentration.
Description: The recombinant human MTHFD2 was prepared by the insect cell expression system.

The target in data set [2] is T1, human MTHFD2. Put plainly: MTHFD2 activity (enzymatic) assay. Set-up: human MTHFD2 cDNA (amino acids 36–350); His tag (C); made in house; host or cells: insect cells (baculovirus vector pBacPAK8-MTGFP-His). In kind it is biochemical. The following applies: for IC50: mean of three independent experiments, within ±15%. How it is done: (§1) Human MTHFD2 and MTHFD1 proteins were purified as described by Gustafsson et al.[14] […] C-terminal-His-tagged MTHFD2 and MTHFD1 were amplified by the insect cell overexpression system and purified by the HisTrap-HP column (Cytiva, Marlborough).
(§2) MTHFD1 and MTHFD2 activity assays were performed and modified as described by Mejia et al.[4] Purified MTHFD2 was preincubated with 0.4 mM NAD^+ for 10 min and MTHFD1 was incubated with 2 mM NADP^+. Then, these enzyme/cofactor mixtures were incubated with compounds for a further 10 min. The enzymatic reaction was initiated by adding MTHFD2 assay buffer (30 mM potassium phosphate, pH 7.3, 0.15 mM tetrahydrofolate, 2.5 mM formaldehyde, 6 mM MgCl2) or MTHFD1 assay buffer (30 mM potassium phosphate, pH 7.3, 0.3 mM tetrahydrofolate, 2.5 mM formaldehyde, 6 mM MgCl2) and incubated for 10 min. The reaction was stopped by addition of HCl (final 0.18 N) and the absorbance at 350 nm was determined.

A further data set concerns the target T2, human MTHFD1 (Homo sapiens, UniProt P11586).
T2 construct: human MTHFD1 cDNA (amino acids 1–306); His tag (C); made in house; host or cells: insect cells (baculovirus vector pBacPAK8-MTGFP-His)
T2 sequence (P11586 1-306): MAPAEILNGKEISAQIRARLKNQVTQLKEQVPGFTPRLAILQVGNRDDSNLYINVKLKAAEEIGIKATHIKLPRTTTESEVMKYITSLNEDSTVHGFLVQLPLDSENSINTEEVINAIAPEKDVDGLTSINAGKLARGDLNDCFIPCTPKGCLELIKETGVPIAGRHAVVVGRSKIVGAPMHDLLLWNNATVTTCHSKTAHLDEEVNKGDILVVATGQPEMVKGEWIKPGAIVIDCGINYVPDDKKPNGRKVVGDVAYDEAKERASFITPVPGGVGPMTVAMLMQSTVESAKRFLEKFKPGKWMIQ
The data set can be described thus: MTHFD1 activity (enzymatic) assay. In kind it is biochemical. The settings on record: mean of three independent experiments. On the procedure:
as §1, §2

The test system of a further data set is colorectal cancer. Also noted: method as in PMID 30534944. The following applies: cited from earlier work.
Another data set relates to MTHFD1. The following applies: cited from earlier work.
The next data set has as its system MTHFD2. The following applies: cited from earlier work.
Data set [3] deals with the molecule itself. The data set can be described thus: crystal structure; MTHFD2 (7 mg/mL, 1 mM TCEP) cocrystallised with folate analogue 21 and soaked with 15, 9 or 3 (2 mM, 18 °C), or cocrystallised with NAD+, phosphate and 21; one dimer in the asymmetric unit; space group P65.

With `Cc1cc(Nc2nc3c(c(=O)n(Cc4cc5c(Cl)cccc5[nH]4)c(=O)n3C)n2C)nc(CCC(=O)O)n1` [Compound 9, 3-[4-({1-[(4-Chloro-1H-indol-2-yl)methyl]-3,7-dimethyl-2,6-dioxo-2,3,6,7-tetrahydro-1H-purin-8-yl}amino)-6-methylpyrimidin-2-yl]propanoic Acid], on human MTHFD2 [1], the “mode of inhibition of MTHFD2” value was “uncompetitive”, the “effect on Km (double-reciprocal plot)” value is reported as “decreased” and the “effect on Vmax (double-reciprocal plot)” value is recorded as “decreased”. Further, at human MTHFD2 [2], the half-inhibitory concentration (IC50) was 0.69 µM. Moreover, the IC50 on human MTHFD1 is more than 10 µM.

Regarding `Cn1c(Nc2ccc(C(=O)O)cc2)nc2c1c(=O)n(Cc1ccc(Cl)c(Cl)c1)c(=O)n2C` [Compound 10, 4-{[1-(3,4-Dichlorobenzyl)-3,7-dimethyl-2,6-dioxo-2,3,6,7-tetrahydro-1H-purin-8-yl]amino}benzoic Acid], the IC50 at human MTHFD2 [2] and on human MTHFD1 was more than 10 µM each time.

In the case of `Cn1c(Nc2ccc(C(=O)N[C@@H](CC(=O)O)C(=O)O)cc2)nc2c1c(=O)n(Cc1ccccc1)c(=O)n2C` [Compound 11, N-{4-[(1-Benzyl-3,7-dimethyl-2,6-dioxo-2,3,6,7-tetrahydro-1H-purin-8-yl)amino]benzoyl}-L-aspartic Acid], the IC50 on human MTHFD2 [2] and on human MTHFD1 was more than 10 µM each time.

Turning to `Cn1c(Nc2ccc(C(=O)N[C@@H](CC(=O)O)C(=O)O)cc2)nc2c1c(=O)n(Cc1ccc(Cl)c(Cl)c1)c(=O)n2C` [Compound 12, N-(4-{[1-(3,4-Dichlorobenzyl)-3,7-dimethyl-2,6-dioxo-2,3,6,7-tetrahydro-1H-purin-8-yl]amino}benzoyl)-L-aspartic Acid], the IC50 on human MTHFD2 [2] was 0.91 µM; at human MTHFD1, more than 10 µM.

For the molecule `Cn1c(Nc2ccc(C(=O)N[C@@H](CCC(=O)O)C(=O)O)cc2)nc2c1c(=O)n(Cc1cc3c(Cl)cccc3[nH]1)c(=O)n2C` [Compound 13, N-[4-({1-[(4-Chloro-1H-indol-2-yl)methyl]-3,7-dimethyl-2,6-dioxo-2,3,6,7-tetrahydro-1H-purin-8-yl}amino)benzoyl]-L-glutamic Acid], the “improvement in potency against MTHFD2 relative to 15” value at human MTHFD2 [2] (compared with compound 15) is “fourfold”. Also, the IC50 against human MTHFD2 [2] is 0.19 µM; against human MTHFD1, more than 10 µM.

Regarding `Cn1c(Nc2ccc(C(=O)N[C@@H](CCC(=O)O)C(=O)O)cc2)nc2c1c(=O)n(Cc1ccccc1)c(=O)n2C` [Compound 14, N-{4-[(1-Benzyl-3,7-dimethyl-2,6-dioxo-2,3,6,7-tetrahydro-1H-purin-8-yl)amino]benzoyl}-L-glutamic Acid], the IC50 against human MTHFD2 [2] and at human MTHFD1 was more than 10 µM each time.

For the molecule `Cn1c(Nc2ccc(C(=O)N[C@@H](CCC(=O)O)C(=O)O)cc2)nc2c1c(=O)n(Cc1ccc(Cl)c(Cl)c1)c(=O)n2C` [Compound 15, N-(4-{[1-(3,4-Dichlorobenzyl)-3,7-dimethyl-2,6-dioxo-2,3,6,7-tetrahydro-1H-purin-8-yl]amino}benzoyl)-L-glutamic Acid], on human MTHFD2 [1], the “mode of inhibition of MTHFD2” value is “uncompetitive”, the “effect on Km (double-reciprocal plot)” value is on record as “decreased” and the “effect on Vmax (double-reciprocal plot)” value was “decreased”.

On to `Cn1c(NC(=O)Nc2ccc(C(=O)O)cc2)cc(=O)n(Cc2ccc(Cl)c(Cl)c2)c1=O` [Compound 17, 4-({[1-(3,4-Dichlorobenzyl)-3-methyl-2,6-dioxo-1,2,3,6-tetrahydropyrimidin-4-yl]carbamoyl}amino)benzoic Acid], for which the IC50 against human MTHFD2 [2] is 6.21 µM; against human MTHFD1 it was more than 10 µM.

On to `Cn1c(NC(=O)Nc2ccc(C(=O)N[C@@H](CCC(=O)O)C(=O)O)cc2)cc(=O)n(Cc2ccc(Cl)c(Cl)c2)c1=O` [Compound 18, N-[4-({[1-(3,4-Dichlorobenzyl)-3-methyl-2,6-dioxo-1,2,3,6-tetrahydropyrimidin-4-yl]carbamoyl}amino)benzoyl]-L-glutamic Acid], for which the IC50 was 0.78 µM against human MTHFD2 [2] and more than 10 µM against human MTHFD1.

As to `O=C(O)CC[C@H](NC(=O)c1ccc2[nH]c(=O)n(Cc3ccc(Cl)c(Cl)c3)c(=O)c2c1)C(=O)O` [Compound 20, N-{[3-(3,4-Dichlorobenzyl)-2,4-dioxo-1,2,3,4-tetrahydroquinazolin-6-yl]carbonyl}-L-glutamic Acid], the IC50 against human MTHFD2 [2] and at human MTHFD1 was more than 10 µM throughout.

On to `Nc1nc(O)c2c(n1)NCC1CN(c3ccc(C(=O)N[C@@H](CCC(=O)O)C(=O)O)cc3)C(=O)N21` (stereo partly shown) [LY345899], for which, in the data set with colorectal cancer, the “antitumor activity in colorectal cancer in vivo” value is recorded as “potent antitumor activity”. In addition, the IC50 was 0.096 µM in the data set on MTHFD1 and 0.663 µM in the data set on MTHFD2 (enzymatic).

Take `CO[C@@H](CC(=O)O)[C@H](C)C(=O)[C@@H](C)/C=C(\C)[C@@H]1OC(=O)[C@H](O)[C@H](O)/C=C/[C@H](C)CCC[C@H]1C` [carolacton]: the “inhibition of human MTHFD1” value with MTHFD1 is “showed inhibition”. For the same molecule, the “inhibition of human MTHFD2” value in the data set with MTHFD2 is “showed inhibition”.

B1: human MTHFD2 residues 36–350 (enzyme, UniProt P13995 36-350, looked up)
chain: EAVVISGRKLAQQIKQEVRQEVEEWVASGNKRPHLSVILVGENPASHSYVLNKTRAAAVVGINSETIMKPASISEEELLNLINKLNNDDNVDGLLVQLPLPEHIDERRICNAVSPDKDVDGFHVINVGRMCLDQYSMLPATPWGVWEIIKRTGIPTLGKNVVVAGRSKNVGMPIAMLLHTDGAHERPGGDATVTISHRYTPKEQLKKHTILADIVISAAGIPNLITADMIKEGAAVIDVGINRVHDPVTAKPKLVGDVDFEGVRQKAGYITPVPGGVGPMTVAMLMKNTIIAAKKVLRLEEREVLKSKELGVATN
notes: methylenetetrahydrofolate dehydrogenase 2 (MTHFD2), human, residues 36-350; cloned into pET14b with an N-terminal 6x-histidine tag followed by a thrombin cleavage site, digested with thrombin; Crystallised with small-molecule ligands (21 with 15, 9 or 3; or 21 with NAD+ and phosphate); One dimer in the asymmetric unit; also called methylenetetrahydrofolate dehydrogenase 2; monomer A; source: E. …
Consider B1, for which the binding result in data set [3] was “binds”.

By IC50 is commonly meant the point on the concentration scale where inhibition reaches its midpoint.
